# Experimental data: patent publication US20230127944A1, “BROAD-SPECTRUM CARBAPENEMS” (priority 2019, published 2023)
# Experiments:
# Type in all cases: cell-based
# [1] = tested on: S. aureus ATCC 33591 (methicillin-resistant); experiment: broth microdilution MIC assay, S. aureus 33591; settings: Staphylococcus aureus, ATCC33591; S. aureus 33591, methicillin-resistant; read-out: MIC, S. aureus 33591
# Method in brief: (§1)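 CLSI microdilution; MH broth + divalent cations; 5×10^5 CFU/mL; 2-fold series; 37° C, 16-20 h; visual MIC.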
# [2] = tested on: S. aureus USA 300; experiment: broth microdilution MIC assay, S. aureus USA300; settings: Staphylococcus aureus; S. aureus USA300 (MRSA); read-out: MIC, S. aureus USA300
# Method in brief: as §1
# [3] = tested on: S. aureus USA 600; experiment: broth microdilution MIC assay, S. aureus USA600; settings: Staphylococcus aureus; S. aureus USA600 (MRSA); read-out: MIC, S. aureus USA600
# Method in brief: as §1
# [4] = tested on: E. coli ATCC 25922 (wild-type/QC strain); experiment: broth microdilution MIC assay, E. coli 25922; settings: Escherichia coli, ATCC25922; read-out: MIC, E. coli 25922
# Method in brief: as §1
# [5] = tested on: P. aeruginosa ATCC 27853 (wild-type/QC strain); experiment: broth microdilution MIC assay, P. aeruginosa 27853; settings: Pseudomonas aeruginosa, ATCC27853; read-out: MIC, P. aeruginosa 27853
# Method in brief: as §1
# [6] = tested on: P. aeruginosa 35151 (hyper-permeable strain); experiment: broth microdilution MIC assay, P. aeruginosa 35151; settings: Pseudomonas aeruginosa, read-out: MIC, P. aeruginosa 35151
# Method in brief: as §1
# [7] = tested on: P. aeruginosa ΔmexAB-OprM (an efflux pump knockout); experiment: broth microdilution MIC assay, P. aeruginosa ΔmexAB-OprM; settings: Pseudomonas aeruginosa, read-out: MIC, P. aeruginosa ΔmexAB-OprM
# Method in brief: as §1
# [8] = tested on: P. aeruginosa Paeβ-17; experiment: broth microdilution MIC assay, P. aeruginosa Paeβ-17; settings: Pseudomonas aeruginosa, read-out: MIC, P. aeruginosa Paeβ-17
# Method in brief: as §1
Compound,MIC [1] [µg/mL],MIC [2] [µg/mL],MIC [3] [µg/mL],MIC [4] [µg/mL],MIC [5] [µg/mL],MIC [6] [µg/mL],MIC [7] [µg/mL],MIC [8] [µg/mL]
"C[C@@H](O)[C@H]1C(=O)N2C(C(=O)O)=C(S[C@H]3C[C@@H](N[C@H]4CC[C@@H](N)CC4)C3)[C@H](C)[C@H]12 [Example 62, (4R,5S,6S)-3-(((1S,3S)-3-(((1S,4R)-4-aminocyclohexyl)amino)cyclobutyl)thio)-6-((R)-1-hydroxyethyl)-4-methyl-7-oxo-1-azabicyclo[3.2.0]hept-2-ene-2-carboxylic acid]",1 to 4,1 to 4,1 to 4,< 1,1 to 4,< 1,1 to 4,8 to 32
"C[C@@H](O)[C@H]1C(=O)N2C(C(=O)O)=C(S[C@H]3C[C@@H](NC4CCNCC4)C3)[C@H](C)[C@H]12 [Example 44, (4R,5S,6S)-6-((R)-1-hydroxyethyl)-4-methyl-7-oxo-3-(((1S,3S)-3-(piperidin-4-ylamino)cyclobutyl)thio)-1-azabicyclo[3.2.0]hept-2-ene-2-carboxylic acid]",8 to 32,1 to 4,1 to 4,< 1,8 to 32,< 1,1 to 4,8 to 32
"C[C@@H](O)[C@H]1C(=O)N2C(C(=O)O)=C(S[C@H]3C[C@H](N[C@H]4CC[C@@H](NC(=N)N)CC4)C3)[C@H](C)[C@H]12 [Example 69, (4R,5S,6S)-3-(((1R,3R)-3-(((1S,4S)-4-guanidinocyclohexyl)amino)cyclobutyl)thio)-6-((R)-1-hydroxyethyl)-4-methyl-7-oxo-1-azabicyclo[3.2.0]hept-2-ene-2-carboxylic acid]",8 to 32,1 to 4,1 to 4,< 1,8 to 32,< 1,1 to 4,8 to 32
"C[C@@H](O)[C@H]1C(=O)N2C(C(=O)O)=C(SC3CN(CC4CCN(C)CC4)C3)[C@H](C)[C@H]12 [Example 40, (4R,5S,6S)-6-((R)-1-hydroxyethyl)-4-methyl-3-((1-((1-methylpiperidin-4-yl)methyl)azetidin-3-yl)thio)-7-oxo-1-azabicyclo[3.2.0]hept-2-ene-2-carboxylic acid]",8 to 32,1 to 4,1 to 4,< 1,8 to 32,< 1,1 to 4,8 to 32
"C[C@@H](O)[C@H]1C(=O)N2C(C(=O)O)=C(S[C@@H]3CCN(Cc4ccc(N)nc4)C3)[C@H](C)[C@H]12 [Example 25, (4R,5S,6S)-3-(((R)-1-((6-aminopyridin-3-yl)methyl)pyrrolidin-3-yl)thio)-6-((R)-1-hydroxyethyl)-4-methyl-7-oxo-1-azabicyclo[3.2.0]hept-2-ene-2-carboxylic acid]",8 to 32,1 to 4,1 to 4,< 1,8 to 32,< 1,1 to 4,> 32
"C[C@@H](O)[C@H]1C(=O)N2C(C(=O)O)=C(SC3CN([C@H]4CC[C@@H](N)C4)C3)[C@H](C)[C@H]12 [Example 7, (4R,5S,6S)-3-((1-((1S,3R)-3-aminocyclopentyl)azetidin-3-yl)thio)-6-((R)-1-hydroxyethyl)-4-methyl-7-oxo-1-azabicyclo[3.2.0]hept-2-ene-2-carboxylic acid]",8 to 32,1 to 4,1 to 4,< 1,8 to 32,< 1,1 to 4,8 to 32
"C[C@@H](O)[C@H]1C(=O)N2C(C(=O)O)=C(S[C@@H]3CCN([C@H]4CC[C@H](CN)CC4)C3)[C@H](C)[C@H]12 [Example 58, (4R,5S,6S)-3-(((R)-1-((1R,4R)-4-(aminomethyl)cyclohexyl)pyrrolidin-3-yl)thio)-6-((R)-1-hydroxyethyl)-4-methyl-7-oxo-1-azabicyclo[3.2.0]hept-2-ene-2-carboxylic acid]",1 to 4,1 to 4,1 to 4,< 1,1 to 4,< 1,1 to 4,8 to 32
"C[C@@H](O)[C@H]1C(=O)N2C(C(=O)O)=C(SC3CN([C@H]4CC[C@H](NC(=N)N)C4)C3)[C@H](C)[C@H]12 [Example 11, (4R,5S,6S)-3-((1-((1S,3S)-3-guanidinocyclopentyl)azetidin-3-yl)thio)-6-((R)-1-hydroxyethyl)-4-methyl-7-oxo-1-azabicyclo[3.2.0]hept-2-ene-2-carboxylic acid]",1 to 4,1 to 4,< 1,< 1,1 to 4,< 1,1 to 4,8 to 32
"C[C@@H](O)[C@H]1C(=O)N2C(C(=O)O)=C(S[C@@H]3CCN([C@H]4CC[C@@H](NC(=N)N)C4)C3)[C@H](C)[C@H]12 [Example 31, (4R,5S,6S)-3-(((R)-1-((1S,3R)-3-guanidinocyclopentyl)pyrrolidin-3-yl)thio)-6-((R)-1-hydroxyethyl)-4-methyl-7-oxo-1-azabicyclo[3.2.0]hept-2-ene-2-carboxylic acid]",1 to 4,< 1,1 to 4,< 1,1 to 4,< 1,< 1,8 to 32
"C[C@@H](O)[C@H]1C(=O)N2C(C(=O)O)=C(S[C@H]3C[C@H](N[C@H]4CC[C@@H](N)C4)C3)[C@H](C)[C@H]12 [Example 74, (4R,5S,6S)-3-(((1S,3R)-3-(((1S,3R)-3-aminocyclopentyl)amino)cyclobutyl)thio)-6-((R)-1-hydroxyethyl)-4-methyl-7-oxo-1-azabicyclo[3.2.0]hept-2-ene-2-carboxylic acid]",8 to 32,8 to 32,1 to 4,< 1,8 to 32,< 1,8 to 32,1 to 4
"C[C@@H](O)[C@H]1C(=O)N2C(C(=O)O)=C(SC3CN([C@@H]4CC[C@H](N)C4)C3)[C@H](C)[C@H]12 [Example 6, (4R,5S,6S)-3-((1-((1R,3S)-3-aminocyclopentyl)azetidin-3-yl)thio)-6-((R)-1-hydroxyethyl)-4-methyl-7-oxo-1-azabicyclo[3.2.0]hept-2-ene-2-carboxylic acid]",1 to 4,1 to 4,1 to 4,< 1,1 to 4,< 1,1 to 4,8 to 32
"C[C@@H](O)[C@H]1C(=O)N2C(C(=O)O)=C(S[C@H]3C[C@@H](NC4CCN(C(=N)N)CC4)C3)[C@H](C)[C@H]12 [Example 43, (4R,5S,6S)-3-(((1S,3S)-3-((1-carbamimidoylpiperidin-4-yl)amino)cyclobutyl)thio)-6-((R)-1-hydroxyethyl)-4-methyl-7-oxo-1-azabicyclo[3.2.0]hept-2-ene-2-carboxylic acid]",1 to 4,< 1,< 1,< 1,1 to 4,< 1,1 to 4,8 to 32
"C[C@@H](O)[C@H]1C(=O)N2C(C(=O)O)=C(S[C@H]3C[C@@H](N[C@H]4CC[C@H](NC(=N)N)CC4)C3)[C@H](C)[C@H]12 [Example 52, (4R,5S,6S)-3-(((1S,3S)-3-(((1R,4S)-4-guanidinocyclohexyl)amino)cyclobutyl)thio)-6-((R)-1-hydroxyethyl)-4-methyl-7-oxo-1-azabicyclo[3.2.0]hept-2-ene-2-carboxylic acid]",1 to 4,1 to 4,< 1,< 1,1 to 4,< 1,1 to 4,8 to 32
"C[C@@H](O)[C@H]1C(=O)N2C(C(=O)O)=C(S[C@@H]3CC[C@@H](NC4CCNCC4)C3)[C@H](C)[C@H]12 [Example 53, (4R,5S,6S)-6-((R)-1-hydroxyethyl)-4-methyl-7-oxo-3-(((1R,3R)-3-(piperidin-4-ylamino)cyclopentyl)thio)-1-azabicyclo[3.2.0]hept-2-ene-2-carboxylic acid]",8 to 32,1 to 4,1 to 4,< 1,8 to 32,< 1,1 to 4,8 to 32
"CNC[C@H]1CC[C@H](CN2CC(SC3=C(C(=O)O)N4C(=O)[C@H]([C@@H](C)O)[C@H]4[C@H]3C)C2)CC1 [Example 47, (4R,5S,6S)-6-((R)-1-hydroxyethyl)-4-methyl-3-((1-(((1r,4R)-4-((methylamino)methyl)cyclohexyl)methyl)azetidin-3-yl)thio)-7-oxo-1-azabicyclo[3.2.0]hept-2-ene-2-carboxylic acid]",1 to 4,1 to 4,1 to 4,< 1,1 to 4,< 1,1 to 4,8 to 32
